Drawing on patent publication US10548862B2, “Topical formulation and method for preventing or treating acne” (Gongwin Biopharm Holdings Co., Ltd., priority 2017, dated 2020), this text covers solubility for one compound.

In brackets after ≈: the same amount, converted by molar mass.

A short description of this data set: Solubility of p-TSA in various solvents. Type of data set: physicochemical. The following applies: thermodynamic from solid.

What is called solubility is the dissolved amount per volume that the medium holds. `Cc1ccc(S(N)(=O)=O)cc1` [p-TSA, p-Toluenesulfonamide]: the solubility amounted to 17.6 mg/mL (≈ 103 mM) (aqueous with cosolvent or surfactant or cyclodextrin, in 20% 7-sulfobutyl-ether-β-cyclodextrin (SBEβCD), n = 3); 108 mg/mL (≈ 628 mM) (organic solvent or mixture, in Absolute ethanol, n = 3); 786 mg/mL (≈ 4590 mM) (organic solvent or mixture, in Dimethyl sulfoxide (DMSO), n = 3); 28.4 mg/mL (≈ 166 mM) (organic solvent or mixture, in Glycerol, n = 3); 443 mg/mL (≈ 2590 mM) (organic solvent or mixture, in Glycofurol 75, n = 3); 467 mg/mL (≈ 2720 mM) (organic solvent or mixture, in Polyethylene glycol 400 (PEG-400), n = 3). For the same compound, the solubility (organic solvent or mixture, in Propylene glycol (PG), n = 3) turned out to be 118 mg/mL (≈ 688 mM).
